Source: PubChem BioAssay AID1745844 (Carcinogenic Potency Database (CPDB), 2022)
Calls of active or inactive are those of the source. No rule for the calls is given here.

System: rodent lifetime carcinogenesis bioassay, tumor incidence TD50
Test: chronic cancer bioassays in animals – CPDB, compiled studies (AID 1745844)
[1] = mouse, strain B6AKF1, females, oral dosing, site: any site (literature study), lesion: several types, types named in the paper, dosed 76 weeks, study length 76 weeks
[2] = mouse, strain B6AKF1, females, oral dosing, site: liver, lesion: hepatoma, dosed 76 weeks, study length 76 weeks
[3] = mouse, strain B6AKF1, males, oral dosing, site: any site (literature study), lesion: several types, types named in the paper, dosed 76 weeks, study length 76 weeks
[4] = mouse, strain B6AKF1, males, oral dosing, site: liver, lesion: hepatoma, dosed 76 weeks, study length 76 weeks
[5] = mouse, strain B6AKF1, males, oral dosing, site: lung, lesion: adenoma, dosed 76 weeks, study length 76 weeks
[6] = mouse, strain B6C3F1, females, oral dosing, site: any site (literature study), lesion: several types, types named in the paper, dosed 76 weeks, study length 76 weeks
[7] = mouse, strain B6C3F1, females, oral dosing, site: liver, lesion: hepatoma, dosed 76 weeks, study length 76 weeks
[8] = mouse, strain B6C3F1, females, oral dosing, site: lung, lesion: adenoma, dosed 76 weeks, study length 76 weeks
[9] = mouse, strain B6C3F1, males, oral dosing, site: any site (literature study), lesion: several types, types named in the paper, dosed 76 weeks, study length 76 weeks
[10] = mouse, strain B6C3F1, males, oral dosing, site: liver, lesion: hepatoma, dosed 76 weeks, study length 76 weeks

Compound `NNc1nc(-c2ccc([N+](=O)[O-])cc2)cs1` has a TD50 (mouse, strain Swiss, females, in feed, site: all sites, lesion: lymphocytic leukemia, dosed 46 weeks, study length 66 weeks) of 10.6 mg/kg/day, a TD50 (mouse, strain Swiss, females, in feed, site: any site (literature study), lesion: several types, types named in the paper, dosed 46 weeks, study length 66 weeks) of 8.33 mg/kg/day and a TD50 (mouse, strain Swiss, females, in feed, site: lung, lesion: alveolar-cell carcinoma, dosed 46 weeks, study length 66 weeks) of 25 mg/kg/day. The TD50 (rat, strain Sprague-Dawley, females, in feed, site: any site (literature study), lesion: several types, types named in the paper, dosed 46 weeks, study length 75 weeks) was 0.743 mg/kg/day, the TD50 (rat, strain Sprague-Dawley, females, in feed, site: forestomach, lesion: squamous-cell papilloma, dosed 46 weeks, study length 75 weeks) was 9 mg/kg/day and the TD50 (rat, strain Sprague-Dawley, females, in feed, site: mammary gland, lesion: adenocarcinoma, dosed 45 weeks, study length 52 weeks) was 9.51 mg/kg/day. It also gave a TD50 (rat, strain Sprague-Dawley, females, in feed, site: mammary gland, lesion: adenocarcinoma, dosed 46 weeks, study length 75 weeks) of 3.78 mg/kg/day, a TD50 (rat, strain Sprague-Dawley, females, in feed, site: mammary gland, lesion: several types, types named in the paper, dosed 45 weeks, study length 52 weeks) of 8.66 mg/kg/day and a TD50 (rat, strain Sprague-Dawley, females, in feed, site: mammary gland, lesion: several types, types named in the paper, dosed 46 weeks, study length 75 weeks) of 1.97 mg/kg/day. It also gave a TD50 (rat, strain Sprague-Dawley, females, in feed, site: salivary gland, lesion: adenocarcinoma, dosed 45 weeks, study length 52 weeks) of 21.7 mg/kg/day.
Work on `ON=C1CCCC1` yielded a TD50 (rat, strain Fischer 344, males, by gavage, site: liver, lesion: hepatocellular carcinoma, dosed 50 weeks, study length 83 weeks) of 70.7 mg/kg/day and a TD50 (rat, strain Fischer 344, males, by gavage, site: liver, lesion: several types, types named in the paper, dosed 50 weeks, study length 83 weeks) of 40.9 mg/kg/day.
In the case of `[N-]=[N+]=O`, the carcinogen call (mouse, strain Swiss Webster, females, inhaled, site: liver, lesion: one or several types, types not named, dosed 78 weeks, study length 83 weeks) is reported as “negative (inactive)”, the TD50 (mouse, strain Swiss Webster, females, inhaled, site: lung, lesion: adenoma, dosed 78 weeks, study length 83 weeks) is reported as 309000 mg/kg/day (inactive) and the carcinogen call (mouse, strain Swiss Webster, females, inhaled, site: several sites, sites named in the paper, lesion: one or several types, types not named, dosed 78 weeks, study length 83 weeks) is reported as “negative (inactive)”. For the same compound, the carcinogen call (mouse, strain Swiss Webster, males, inhaled, site: liver, lesion: one or several types, types not named, dosed 78 weeks, study length 83 weeks) was “negative (inactive)”, the carcinogen call (mouse, strain Swiss Webster, males, inhaled, site: lung, lesion: adenoma, dosed 78 weeks, study length 83 weeks) was “negative (inactive)” and the carcinogen call (mouse, strain Swiss Webster, males, inhaled, site: several sites, sites named in the paper, lesion: one or several types, types not named, dosed 78 weeks, study length 83 weeks) was “negative (inactive)”.
For `c1ccc2sc(SSc3nc4ccccc4s3)nc2c1`, the TD50 [1] was 1380 mg/kg/day (inactive), the carcinogen call [2] was “negative (inactive)” and the carcinogen call (mouse, strain B6AKF1, females, oral dosing, site: lung, lesion: adenoma, dosed 76 weeks, study length 76 weeks) was “negative (inactive)”. For the same compound, the TD50 [3] was 511 mg/kg/day (inactive), the carcinogen call [4] was “negative (inactive)” and the TD50 [5] was 1130 mg/kg/day (inactive). The TD50 [6] was 432 mg/kg/day (inactive), the carcinogen call [7] was “negative (inactive)” and the TD50 [8] was 669 mg/kg/day (inactive). For the same compound, the TD50 [9] was 401 mg/kg/day (inactive), the TD50 [10] was 621 mg/kg/day (inactive) and the carcinogen call (mouse, strain B6C3F1, males, oral dosing, site: lung, lesion: several types, types named in the paper, dosed 76 weeks, study length 76 weeks) was “negative (inactive)”.
For `S=C(S)NCCNC(=S)S`, the carcinogen call [1] was “negative (inactive)”, the carcinogen call [2] was “negative (inactive)” and the carcinogen call (mouse, strain B6AKF1, females, oral dosing, site: lung, lesion: several types, types named in the paper, dosed 76 weeks, study length 76 weeks) was “negative (inactive)”. The carcinogen call [3] was “negative (inactive)”, the carcinogen call [4] was “negative (inactive)” and the carcinogen call [5] was “negative (inactive)”. The carcinogen call [6] was “negative (inactive)”, the carcinogen call [7] was “negative (inactive)” and the carcinogen call [8] was “negative (inactive)”. The carcinogen call [9] was “negative (inactive)”, the TD50 [10] was 866 mg/kg/day (inactive) and the carcinogen call (mouse, strain B6C3F1, males, oral dosing, site: lung, lesion: adenoma, dosed 76 weeks, study length 76 weeks) was “negative (inactive)”.
`OCC(O)CCl` (stereo not given) was tested, and the carcinogen call (rat, strain Charles River CD (Sprague-Dawley), females, by gavage, site: parathyroid, lesion: adenoma, dosed 72 weeks, study length 104 weeks) was “negative (inactive)” and the TD50 (rat, strain Charles River CD (Sprague-Dawley), males, by gavage, site: parathyroid, lesion: adenoma, dosed 72 weeks, study length 104 weeks) was 116 mg/kg/day.
In the case of `c1ccc(Nc2ccc3ccccc3c2)cc1`, the carcinogen call (hamster, strain Syrian Golden, females, by gavage, site: any site (literature study), lesion: several types, types named in the paper, dosed 84 weeks, study length 84 weeks) is reported as “negative (inactive)”, the carcinogen call (hamster, strain Syrian Golden, males, by gavage, site: any site (literature study), lesion: several types, types named in the paper, dosed 84 weeks, study length 84 weeks) is reported as “negative (inactive)” and the TD50 [1] is reported as 1080 mg/kg/day. The TD50 [3] was 186 mg/kg/day, the TD50 [4] was 460 mg/kg/day and the TD50 [5] was 431 mg/kg/day. The TD50 (mouse, strain B6C3F1, females, in feed, site: kidney, lesion: tubular-cell adenoma + tubular-cell adenocarcinoma, dosed 103 weeks, study length 104 weeks) was 10800 mg/kg/day, the TD50 (mouse, strain B6C3F1, females, in feed, site: liver, lesion: hepatocellular adenoma + hepatocellular carcinoma + neoplastic nodule, dosed 103 weeks, study length 104 weeks) was 5630 mg/kg/day and the TD50 [6] was 1080 mg/kg/day. The TD50 [7] was 1080 mg/kg/day, the TD50 (mouse, strain B6C3F1, males, in feed, site: any site (literature study), lesion: several types, types named in the paper, dosed 103 weeks, study length 104 weeks) was 4510 mg/kg/day and the TD50 (mouse, strain B6C3F1, males, in feed, site: liver, lesion: hepatocellular adenoma + hepatocellular carcinoma + neoplastic nodule, dosed 103 weeks, study length 104 weeks) was 1350 mg/kg/day. The TD50 (mouse, strain B6C3F1, males, in feed, site: subcutaneous tissue, lesion: fibrosarcoma + neurofibrosarcoma + sarcoma, NOS, dosed 103 weeks, study length 104 weeks) was 2380 mg/kg/day (inactive), the TD50 [9] was 108 mg/kg/day and the TD50 [10] was 165 mg/kg/day. The carcinogen call (rat, strain Fischer 344, females, in feed, site: any site (literature study), lesion: several types, types named in the paper, dosed 103 weeks, study length 104 weeks) was “negative (inactive)”, the carcinogen call (rat, strain Fischer 344, males, in feed, site: any site (literature study), lesion: several types, types named in the paper, dosed 103 weeks, study length 104 weeks) was “negative (inactive)” and the carcinogen call (rat, strain Sprague-Dawley, females, by gavage, site: any site (literature study), lesion: several types, types named in the paper, dosed 136 weeks, study length 136 weeks) was “negative (inactive)”. For the same compound, the carcinogen call (rat, strain Sprague-Dawley, males, by gavage, site: any site (literature study), lesion: several types, types named in the paper, dosed 160 weeks, study length 160 weeks) was “negative (inactive)”.
With `CC(C)NCC(O)c1ccc2ccccc2c1` (stereo not given) the carcinogen call (mouse, strain CF-1, females, in feed, site: liver, lesion: one or several types, types not named, dosed 78 weeks, study length 78 weeks) was “negative (inactive)”, the TD50 (mouse, strain CF-1, females, in feed, site: lung, lesion: adenoma, dosed 78 weeks, study length 78 weeks) was 1300 mg/kg/day (inactive) and the TD50 (mouse, strain CF-1, males, in feed, site: liver, lesion: adenoma, dosed 78 weeks, study length 78 weeks) was 1820 mg/kg/day (inactive). The carcinogen call (mouse, strain CF-1, males, in feed, site: liver, lesion: carcinoma, dosed 78 weeks, study length 78 weeks) was “negative (inactive)”, the TD50 (mouse, strain CF-1, males, in feed, site: lung, lesion: adenoma, dosed 78 weeks, study length 78 weeks) was 931 mg/kg/day (inactive) and the TD50 (mouse, strain Not specified, females, in feed, site: thymus gland, lesion: one or several types, types not named, dosed 64 weeks, study length 64 weeks) was 408 mg/kg/day. For the same compound, the TD50 (mouse, strain Not specified, males, in feed, site: thymus gland, lesion: one or several types, types not named, dosed 64 weeks, study length 64 weeks) was 1930 mg/kg/day.
With `C=C1CC[C@H](O)C/C1=C/C=C1\CCC[C@]2(C)[C@@H]([C@H](C)/C=C/[C@H](C)C(C)C)CC[C@@H]12` the TD50 (mouse, strain C3H (MTV+), females, in feed, site: mammary gland, lesion: adenocarcinoma, dosed 104 weeks, study length 104 weeks) was 39.6 mg/kg/day.
In the case of `COc1ccc(C(=O)Nc2c(Cl)cncc2Cl)cc1OC1CCCC1`, the TD50 (rat, strain IcoIbm:OFA (Sprague-Dawley derived), females, inhaled, site: nasal cavity, olfactory epithelium, lesion: carcinoma, dosed 102 weeks, study length 102 weeks) is reported as 24.6 mg/kg/day, the TD50 (rat, strain IcoIbm:OFA (Sprague-Dawley derived), females, inhaled, site: nasal cavity, olfactory epithelium, lesion: malignant tumor, dosed 102 weeks, study length 102 weeks) is reported as 1.22 mg/kg/day and the TD50 (rat, strain IcoIbm:OFA (Sprague-Dawley derived), females, inhaled, site: nasal cavity, olfactory epithelium, lesion: neuroblastoma, in situ, dosed 102 weeks, study length 102 weeks) is reported as 12.2 mg/kg/day. For the same compound, the TD50 (rat, strain IcoIbm:OFA (Sprague-Dawley derived), females, inhaled, site: nasal cavity, olfactory epithelium, lesion: neuroblastoma, dosed 102 weeks, study length 102 weeks) was 1.68 mg/kg/day, the TD50 (rat, strain IcoIbm:OFA (Sprague-Dawley derived), females, inhaled, site: nasal cavity, olfactory epithelium, lesion: several types, types named in the paper, dosed 102 weeks, study length 102 weeks) was 1.18 mg/kg/day and the TD50 (rat, strain IcoIbm:OFA (Sprague-Dawley derived), females, inhaled, site: nasal cavity, olfactory region, Bowman's gland, lesion: adenocarcinoma, dosed 102 weeks, study length 102 weeks) was 24.6 mg/kg/day. For the same compound, the TD50 (rat, strain IcoIbm:OFA (Sprague-Dawley derived), females, inhaled, site: nasal cavity, olfactory region, Bowman's gland, lesion: adenoma, dosed 102 weeks, study length 102 weeks) was 24.7 mg/kg/day, the TD50 (rat, strain IcoIbm:OFA (Sprague-Dawley derived), males, inhaled, site: nasal cavity, olfactory epithelium, lesion: carcinoma, dosed 104 weeks, study length 104 weeks) was 51.5 mg/kg/day and the TD50 (rat, strain IcoIbm:OFA (Sprague-Dawley derived), males, inhaled, site: nasal cavity, olfactory epithelium, lesion: malignant tumor, dosed 104 weeks, study length 104 weeks) was 2.48 mg/kg/day. For the same compound, the TD50 (rat, strain IcoIbm:OFA (Sprague-Dawley derived), males, inhaled, site: nasal cavity, olfactory epithelium, lesion: neuroblastoma, in situ, dosed 104 weeks, study length 104 weeks) was 17 mg/kg/day, the TD50 (rat, strain IcoIbm:OFA (Sprague-Dawley derived), males, inhaled, site: nasal cavity, olfactory epithelium, lesion: neuroblastoma, dosed 104 weeks, study length 104 weeks) was 3.75 mg/kg/day and the TD50 (rat, strain IcoIbm:OFA (Sprague-Dawley derived), males, inhaled, site: nasal cavity, olfactory epithelium, lesion: several types, types named in the paper, dosed 104 weeks, study length 104 weeks) was 2.22 mg/kg/day. For the same compound, the TD50 (rat, strain IcoIbm:OFA (Sprague-Dawley derived), males, inhaled, site: nasal cavity, olfactory region, Bowman's gland, lesion: adenocarcinoma, dosed 104 weeks, study length 104 weeks) was 25.6 mg/kg/day and the TD50 (rat, strain IcoIbm:OFA (Sprague-Dawley derived), males, inhaled, site: nasal cavity, olfactory region, Bowman's gland, lesion: adenoma, dosed 104 weeks, study length 104 weeks) was 12.7 mg/kg/day.
